Data set [1] relates to cholesterin-fed rabbit atherosclerosis model. Put plainly: cholesterin-fed rabbit atherosclerosis model (Table 1). Type of data set: in vivo. Also noted: Serum triglyceride: unit not given here. As to conditions: for Serum triglyceride / Serum total cholesterin / Aorta total cholesterin / Aorta total lipid / Serum total lipid: rabbit, cholesterin-fed; for Serum triglyceride: Control-1 75, Control-2 103; for Serum total cholesterin: Control-1 326, Control-2 1504; for Aorta total cholesterin: Control-1 331, Control-2 921; for Aorta total lipid: Control-1 1928, Control-2 2575; for serum lipid, aorta lipid and cholesterin lipid level: in words, from the data of Table 1 (rabbit, 50 mg/kg).

For a further data set, the system named is normolyphaemic rats. Briefly: normolyphaemic rats, serum lipids (Table 2). Format: in vivo, rat. Further details: Serum triglyceride: unit not given here. Conditions: for Serum cholesterine: Control 103; for Serum triglyceride: Control 185.1.
The mark [2] stands for this setting: dose 50 mg/kg, Control-1 (normal feed) 658, Control-2 (cholesterin) 2374.

In the case of “6-methyl-9-chloro-phenyl)-methylene-4-oxo-6,7,8,9-tetrahydro-4H-pyrido(1,2a)pyrimidine-3-carboxylic acid ethylester”, in data set [1] (dose 50 mg/kg), the Serum triglyceride worked out at 190, the Serum total cholesterin worked out at 1531, the Aorta total cholesterin is recorded as 365 and the Aorta total lipid is reported as 2461. Moreover, the Serum total lipid in data set [1] (setting [2]) is on record as 2547.
In the same order, the values of `CCOC(=O)c1cnc2n(c1=O)C(C)CCC2=Cc1cccn1C` (centres unmarked) [A, 6-methyl-9-(N-methyl-2-pyrrolyl)-methylene-4-oxo-6,7,8,9-tetrahydro-4H-pyrido(1,2a) pyrimidine-3-carboxylic acid ethylester] are 121, 1419, 958, 2496 and 2309.
Turning to `CCOC(=O)C=C1CCC(C)n2c1ncc(C(=O)OCC)c2=O` (centres unmarked) [C, 6-methyl-9-(ethoxycarbonyl-methylene)-4-oxo-6,7,8,9-tetrahydro-4H-pyrido(1,2a)-purimidine-3-carboxylic acid ethylester], the “serum lipid, aorta lipid and cholesterin lipid level” value in data set [1] is reported as “significant decrease”. In data set [1] (dose 50 mg/kg), this compound registered a Serum triglyceride of 119, a Serum total cholesterin of 1176, an Aorta total cholesterin of 353 and an Aorta total lipid of 1878. Also, the Serum total lipid in data set [1] (setting [2]) is on record as 1903.
Turning to `CCOC(=O)C(C)(C)Oc1ccc(Cl)cc1` [Chlofibrate, reference compound], in the data set on normolyphaemic rats (250 mg/kg p.o.), the Serum cholesterine is recorded as 63.9 and the Serum triglyceride is reported as 144.1. Moreover, in data set [1] (dose 250 mg/kg), the Serum triglyceride is given as 115, the Serum total cholesterin is recorded as 1137, the Aorta total cholesterin worked out at 787 and the Aorta total lipid was 2227. The Serum total lipid in data set [1] (dose 250 mg/kg, Control-1 658, Control-2 2374) amounted to 1938. The “weight of the liver” value in data set [1] (test animals) was “increase the weight of the liver”.
Consider `CCOC(=O)c1cnc2n(c1=O)C(C)CCC2CC(=O)O` (centres unmarked) [D, 6-methyl-3-ethoxycarbonyl-4-oxo-6,7,8,9-tetrahydro-4H-pyrido(1,2a)pyrimidine-9-yl-acetic acid], for which the “serum lipid, aorta lipid and cholesterin lipid level” value in data set [1] is recorded as “significant decrease”. Further, in data set [1] (dose 50 mg/kg), the Serum triglyceride was determined as 97, the Serum total cholesterin was 972, the Aorta total cholesterin is recorded as 186 and the Aorta total lipid was found to be 1355. In data set [1] (setting [2]), this compound came in with a Serum total lipid of 1638.
In the data set with normolyphaemic rats (50 mg/kg p.o.), `CCOC(=O)C=C1CCCn2c1ncc(C(=O)OCC)c2=O` [E, 9-(ethoxycarbonyl-methylene)-4-oxo-6,7,8,9-tetrahydro-4H-pyrido(1,2a)pyrimidine-3-carboxylic acid ethylester] yielded a Serum cholesterine of 86.5 and a Serum triglyceride of 127.9.
In the same order, the values of `CCOC(=O)C1=CNC2C(CC(=O)O)CCCN2C1=O` (centres unmarked) [F, 9-(carboxyl-methyl)-4-oxo-1,6,7,8,9,9a-hexahydro-4H-pyrido(1,2a)pyrimidine-3-carboxylic acid ethylester] are 88.0 and 155.5.
In the data set with normolyphaemic rats (50 mg/kg p.o.), `CCOC(=O)c1cnc2n(c1=O)CCCC2CC(=O)O` (centres unmarked) [G, 9-(carboxyl-methyl)-4-oxo-6,7,8,9-tetrahydro-4H-pyrido-(1,2a)pyrimidine-3-carboxylic acid ethylester] yielded a Serum cholesterine of 88.0 and a Serum triglyceride of 127.5.
In the same order, the values of `COC(=O)C=C1CCC(C)n2c1ncc(C(=O)OC)c2=O` (centres unmarked) [H, 9-(methoxycarbonyl-methylene)-6-methyl-4-oxo-6,7,8,9-tetrahydro-4H-pyrido(1,2a)pyrimidine-3-carboxylic acid methylester] are 90.2 and 107.9.

Values taken from patent publication US4252807A, “Fused pyrimidine derivatives and antiatherosclerotic methods of treatment with them” (Chincin Gyogyszer es Vegyeszeti Termekek Gyara Rt., priority 1976, dated 1981).
